In patent US20110082133A1, “PYRIDONE COMPOUNDS” (priority 2008, published 2011):

Assays:
[1] = biological target: rat EP4 receptor (Rattus norvegicus, UniProt P43114); test: Evaluation test on EP4 receptor affinity in rat ([3H]PGE2 receptor binding test, membrane fraction); parameters: expressed in transfected cells; host or cells: HEK293 cells, transient transfection (Lipofectamine 2000); membrane fraction used; conditions: [3H]PGE2 0.3 nM, membrane fraction of rat EP4 expressing HEK293 cells
Procedure: A rat EP4 receptor cDNA was subcloned into an expression vector (pcDNA3.1-V5-His-topo, manufactured by Invitrogen Corporation) to prepare a rat EP4 expression vector. HEK293 cells were cultured in a collagen type I-treated 15 cm dish (manufactured by Asahi Techno Glass Co. Ltd.) to a confluence of 70%. An Opti-MEM culture medium at 1.2 mL/dish and a transfection reagent (Lipofectamine 2000, manufactured by Invitrogen Corporation) at 60 μL/dish were mixed, followed by being left to stand at room temperature for 5 minutes. Then, the rat EP4 receptor expression vector at 15 μg/dish was added thereto, followed by being left to stand at room temperature for 30 minutes. The liquid mixture of the transfection reagent was added into the dish, followed by culturing for 20 to 24 hours. The cell culture was carried out in a CO2 incubator (37° C., 5% CO2).
The culture medium was removed by suction, 10 mL of cooled PBS was added thereto per 15 cm dish, and the cells were scraped using a cell scraper. After washed with cooled PBS (1,200 rpm, 4° C., 5 minutes), suspended in 6 mL/dish of cooled 20 mM Tris-HCl (pH 7.4; manufactured by Nacalai Tesque Inc., 5 mM EDTA included) and homogenized using a Polytron, the homogenate was centrifuged (26,000 rpm, 20 minutes, 4° C.). The obtained precipitate was resuspended in cooled 20 mM Tris-HCl and homogenized again using a Polytron, and the homogenate was centrifuged (26,000 rpm, 20 minutes, 4° C.). The obtained precipitate was resuspended in 50 mM HEPES (pH 7.5; manufactured by Dojindo Laboratories) at 1 mL per dish, homogenized using a Polytron, and freeze-stored at −80° C. as a membrane fraction. At this time, a part thereof was used for the measurement of the protein concentration. Measurement of the protein concentration was carried out using a Protein assay stain (manufactured by Bio-Rad Laboratories) in accordance with a standard Protocol as appended in duplicate.
[^3H]PGE2 50 μL (final concentration 0.3 nM; manufactured by Perkin Elmer Co., Ltd.), 100 μL (20 μg/well) of the membrane fraction prepared from the rat EP4 expression cell, and 50 μL of a test compound were mixed in a 96-well microplate (manufactured by Sumitomo Bakelite Co., Ltd.), incubated at room temperature for 1 hour, then filtered by suction on a microplate (UniFilter-96 GF/B, manufactured by Perkin Elmer Co., Ltd.) using a cell harvester (FilterMate Harvester, manufactured by Perkin Elmer Co., Ltd.), and washed three times with 300 μL/well of a cooled assay buffer (50 mM HEPES, 10 mM MgCl2). Dilution of [^3H]PGE2 and the membrane fraction was carried out using the assay buffer, and dilution of the test compound and the unlabeled PGE2 was carried out using dimethyl sulfoxide and the assay buffer. The UniFilter-96 GF/B was treated by preliminarily washing twice with 200 μL/well of the cooled assay buffer. The UniFilter-96 GF/B after filtration was dried in a dryer overnight, 50 μL/well of a liquid scintillation cocktail (MicroScint20, manufactured by Perkin Elmer Co., Ltd.) was added thereto, and the radioactivity was then measured using a liquid scintillation counter for a microplate (TopCount, manufactured by Perkin Elmer Co., Ltd.). For measurement of the non-specific binding, an unlabeled PGE2 (final concentration 1 μM; manufactured by Cayman Chemical Company) was added. All of the measurements were carried out in duplicate, and the specific binding amount was determined by subtracting the non-specific binding amount from the total binding amount.
According to the test method as described above, the rat EP4 receptor affinity (Ki) of the compound of the formula (I) was measured. […] In this connection, Ex means Example Compound number.

[2] = tested on: TNF-α production; test: In vivo TNF-α production inhibiting action in rat (LPS-induced plasma TNF-α); parameters: species or system SD male rats; conditions: oral administration 1 hour before LPS (10 μg/kg i.v.), plasma TNF-α 90 minutes after LPS
Procedure: LPS (10 μg/kg) was administered to caudal veins of SD male rats, and after 90 minutes from the administration, the heparin blood was collected from the abdominal vena cava to prepare a plasma. The test compound was orally administered 1 hour before the administration of LPS. The amount of TNF-α in the plasma was measured using a BD OptEIA rat TNF ELISA set (manufactured by Becton, Dickinson and Company) according to the attached method. The inhibitory rate by the test compound was determined from the amount of TNF-α in plasma in a control group (administered with a solvent).

[3] = tested on: LPS-induced TNF-α production in THP-1 cells; test: Inhibitory action on LPS-induced TNF-α production in THP-1 cells; type: cell-based; conditions: Homo sapiens, 3 hours after LPS, ELISA
Procedure: Human monocytic cell line THP-1 cells were suspended in an assay medium (PRMI-1640 containing 10% fetal bovine serum, 100 unit/mL penicillin G sodium, and 100 μg/mL streptomycin sulfate), and seeded onto a 96-well plate at 1×10^5 cells/well. 50 μL/well of an assay medium containing a test compound was added thereto, followed by incubation at 37° C. for 30 minutes. Further, 50 μL/well of an assay medium containing 1 to 5 μg/mL of LPS was added thereto, and the TNF-α concentration in the assay medium of each well after 3 hours was measured. The measurement was carried out by means of a standard ELISA method. A 96-well plate which had been coated overnight with an anti-human TNF monoclonal antibody (clone: MAb1) (manufactured by Becton, Dickinson and Company) as a capture antibody was washed with a wash buffer (PBS containing 0.05% Tween-20), and PBS containing 10% fetal bovine serum was incubated at room temperature for 1 hour to perform blocking. After washing with a wash buffer, 100 μL/well of the assay medium to be measured was incubated at 4° C. overnight. As the standard material to be measured, a recombinant human TNF (manufactured by Becton, Dickinson and Company) was used. After washing with a wash buffer, 100 μL of a biotinylated anti-human TNF monoclonal antibody (clone: MAb11) as a detection antibody was treated at room temperature for 1 hour. After washing with a wash buffer, it was treated with 100 μL/well of an HRP-labeled Streptavidin (manufactured by Zymed Laboratories, Inc.) at room temperature for 30 minutes, and washed again. Treatment was conducted using 100 μL/well of a TMB (3,3′,5,5′-tetramethylbenzidine) substrate liquid at room temperature for 20 minutes in a dark room. A 2 M sulfuric acid was added thereto at 50 μL/well to stop the reaction, and an absorbance at 450 nm/570 nm was measured by means of a plate reader SPECRA max (manufactured by Molecular Devices Inc.).

Sequence of rat EP4 receptor (P43114 whole entry): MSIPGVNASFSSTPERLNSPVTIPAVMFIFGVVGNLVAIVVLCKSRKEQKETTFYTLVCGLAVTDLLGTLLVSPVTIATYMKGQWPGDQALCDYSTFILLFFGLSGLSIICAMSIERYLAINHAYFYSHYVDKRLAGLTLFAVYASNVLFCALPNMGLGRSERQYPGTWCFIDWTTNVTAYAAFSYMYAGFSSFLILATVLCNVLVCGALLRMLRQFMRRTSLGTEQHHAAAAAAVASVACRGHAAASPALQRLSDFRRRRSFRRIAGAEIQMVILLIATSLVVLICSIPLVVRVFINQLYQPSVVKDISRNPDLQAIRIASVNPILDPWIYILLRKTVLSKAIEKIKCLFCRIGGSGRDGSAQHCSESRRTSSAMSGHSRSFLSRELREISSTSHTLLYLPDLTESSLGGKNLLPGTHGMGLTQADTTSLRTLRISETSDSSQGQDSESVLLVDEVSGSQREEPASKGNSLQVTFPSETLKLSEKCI

Ki [1]	IC50 [3]	SMILES	ED50 [2]
0.025 µM	–	O=C(O)c1ccc(CCn2c(CNc3cccc(C(F)(F)F)c3)c(Cl)cc(Cl)c2=O)cc1 [Example 99]	–
0.0028 µM	–	Cc1cc(C2CC2)c(CN2CCC[C@@H]2CC(C)C)n(CCc2ccc(-c3n[nH]c(=O)o3)cc2)c1=O [Example 346]	2 mg/kg
0.011 µM	–	CC(C)c1ccc2c(c1)N(Cc1c(Cl)cc(Cl)c(=O)n1CCc1ccc(C(=O)O)cc1)CC2 [Example 143]	–
0.0086 µM	–	CCCC[C@H]1CCCN1Cc1c(Cl)cc(Cl)c(=O)n1CCc1ccc(C(=O)O)cc1 [Example 158]	–
0.0022 µM	0.013 µM	Cc1cc(C)c(=O)n(CCc2ccc(-c3n[nH]c(=O)o3)cc2)c1CN1CCC[C@@H]1CC(C)C [Example 345]	1.9 mg/kg
0.0051 µM	–	O=C(O)c1ccc(CCn2c(CN3CCc4ccc(OC(F)(F)F)cc43)c(Cl)cc(Cl)c2=O)cc1 [Example 152]	–
0.0041 µM	–	COc1ccc2c(c1)N(Cc1c(Cl)cc(Cl)c(=O)n1CCc1ccc(C(=O)O)cc1)CC2 [Example 130]	–
0.0062 µM	–	COc1cccc(N(C)Cc2c(Cl)cc(Cl)c(=O)n2CCc2ccc(C(=O)O)cc2)c1 [Example 124]	–
0.0049 µM	–	O=C(O)c1ccc(CCn2c(CN3CCc4ccc(C(F)(F)F)cc43)c(Cl)cc(Cl)c2=O)cc1 [Example 153]	–
0.015 µM	–	O=C(O)c1ccc(CCn2c(CN3CCc4ccc(Cl)cc43)c(Cl)cc(Cl)c2=O)cc1 [Example 150]	–
0.029 µM	–	COc1cc(OC)cc(N(C)Cc2c(Cl)cc(Cl)c(=O)n2CCc2ccc(C(=O)O)cc2)c1 [Example 125]	–
0.0095 µM	0.0028 µM	Cc1c(F)ccc2c1N(Cc1c(Cl)cc(Cl)c(=O)n1CCc1ccc(C(=O)O)cc1)CC2 [Example 149]	–
0.0077 µM	–	Cc1ccc2c(c1)N(Cc1c(Cl)cc(Cl)c(=O)n1CCc1ccc(C(=O)O)cc1)CC2 [Example 138]	–
0.016 µM	–	CN(Cc1c(Cl)cc(Cl)c(=O)n1CCc1ccc(C(=O)O)cc1)c1cccc(F)c1 [Example 122]	–
0.012 µM	–	Cc1cccc2c1N(Cc1c(Cl)cc(Cl)c(=O)n1CCc1ccc(C(=O)O)cc1)CC2 [Example 139]	–
0.019 µM	–	Cc1ccc2c(c1)CCCN2Cc1c(Cl)cc(Cl)c(=O)n1CCc1ccc(C(=O)O)cc1 [Example 145]	–
0.021 µM	–	CCN(Cc1c(Cl)cc(Cl)c(=O)n1CCc1ccc(C(=O)O)cc1)c1cccc(C(C)C)c1 [Example 123]	–
0.039 µM	–	COc1cccc2c1N(Cc1c(Cl)cc(Cl)c(=O)n1CCc1ccc(C(=O)O)cc1)CC2 [Example 146]	–

The next lines start with the compound.

SMILES	Ki [1]	IC50 [3]	ED50 [2]
CCc1cccc2c1N(Cc1c(Cl)cc(Cl)c(=O)n1CCc1ccc(C(=O)O)cc1)CC2 [Example 13]	0.024 µM	0.0074 µM	–
Cc1cccc(N(C)Cc2c(Cl)cc(Cl)c(=O)n2CCc2ccc(C(=O)O)cc2)c1 [Example 6, 4-{2-[3,5-dichloro-6-{[methyl(3-methylphenyl)amino]methyl}-2-oxopyridin-1(2H)-yl]ethyl}benzoic acid]	0.011 µM	–	–
Cc1cc(C2CC2)c(CN2CCC[C@@H]2CC(C)C)n(CCc2ccc(C(=O)O)cc2)c1=O [Ex 27]	0.025 µM	0.012 µM	–
CN(Cc1c(Cl)cc(Cl)c(=O)n1CCc1ccc(C(=O)O)cc1)c1cccc(OC(F)(F)F)c1 [Ex 19]	0.0054 µM	–	–
CCc1cccc(NCc2c(Cl)cc(Cl)c(=O)n2CCc2ccc(C(=O)O)cc2)c1 [Example 97]	0.011 µM	–	–
CN(Cc1c(Cl)cc(Cl)c(=O)n1CCc1ccc(C(=O)O)cc1)C1CCCC1 [Ex 26]	–	0.012 µM	–
CCc1ccc2c(c1)N(Cc1c(Cl)cc(Cl)c(=O)n1CCc1ccc(C(=O)O)cc1)CC2 [Example 15, 4-(2-{3,5-dichloro-6-[(6-ethyl-2,3-dihydro-1H-indol-1-yl)methyl]-2-oxopyridin-1(2H)-yl}ethyl)benzoic acid]	0.0036 µM	–	–
CC(C)c1cccc(NCc2c(Cl)cc(Cl)c(=O)n2CCc2ccc(C(=O)O)cc2)c1 [Example 91]	0.0098 µM	–	–
CC(C)C[C@H]1CCCN1Cc1c(Cl)cc(Cl)c(=O)n1CCc1ccc(C(=O)O)cc1 [Ex 18]	0.0044 µM	–	–
CCC[C@H]1CCCN1Cc1c(Cl)cc(Cl)c(=O)n1CCc1ccc(-c2nnn[nH]2)cc1 [Ex 42]	0.00052 µM	0.015 µM	0.076 mg/kg
O=C(O)c1ccc(CCn2c(CN3CCc4ccccc43)c(Cl)cc(Cl)c2=O)cc1 [Example 16, 4-{2-[3,5-dichloro-6-(2,3-dihydro-1H-indol-1-ylmethyl)-2-oxopyridin-1(2H)-yl]ethyl}benzoic acid]	0.013 µM	–	–
CC(C)c1cccc(N(C)Cc2c(Cl)cc(Cl)c(=O)n2CCc2ccc(C(=O)O)cc2)c1 [Example 5, 4-{2-[3,5-dichloro-6-{[(3-isopropylphenyl)(methyl)amino]methyl}-2-oxopyridin-1(2H)-yl]ethyl}benzoic acid]	0.0047 µM	–	–
